Measurements published in publication PMC8623398, “Investigation of the Mechanisms of Cytotoxic Activity of 1,3-Disubstituted Thiourea Derivatives” (Pharmaceuticals, 2021).

Assays:
[1] = test system: K-562 cells; assay: MTT assay, K562; type: cell-based, human; conditions: 50% growth inhibition
Protocol: (§1) As a first step in assessing their cytotoxic properties, all thioureas of the series were assayed against four human carcinoma cell lines, such as SW480 (primary colon cancer), SW620 (metastatic colon cancer), PC3 (metastatic prostate cancer), and K-562 (chronic myelogenous leukemia), as well as against the normal cell line HaCaT (immortalized human keratinocytes). Table 1 lists the compound concentrations that produced 50% of growth inhibition (IC50, μM), generated by the MTT method, in comparison with two commonly used chemotherapeutic agents, doxorubicin and cisplatin.
(§2) The human primary (SW480), metastatic (SW620) colon cancer, metastatic prostate cancer (PC3), chronic myelogenous leukemia (K-562), and human immortal keratinocyte (HaCaT) cell lines were purchased from the American Type Culture Collection (ATCC, Rockville, MD, USA). The cells were cultured in medium according to protocols (MEM for SW480 and SW620, RPMI 1640 for PC3 and K-562, and DMEM for HaCaT cells), supplemented with 10% FBS, penicillin (100 U/mL) and streptomycin (100 μg/mL), and cultured in a 37 °C/5% CO2 humidified incubator. The cells were cultured until appropriate confluence was achieved (80–90%). Next, they were harvested by treatment with 0.25% trypsin (Gibco Life Technologies, Waltham, MA, USA) excluding the non-adherent K-562 cell line and used for studies.
(§3) Cells without the studied compounds in medium were used as a control.
(§4) The cell viability was assessed by determination of MTT salt [3-(4,5-dimethylthiazol-2-yl)-2,5-diphenyltetrazoliumbromide] conversion by mitochondrial dehydrogenase. The MTT assay was performed as previously described. Alternatively, non-adherent leukemic cells were centrifuged in a microplate centrifuge (400× g, 5 min) during the collection stages. Experiments were repeated three times. Cell viability was presented as a percent of MTT reduction in the treated cells versus the control cells. The number of viable cells cultured without the studied compounds was assumed as 100%. A decreased relative MTT level indicated decreased cell viability. Thiourea compounds with the highest cytotoxic potential assessed by MTT determination (with the lowest IC50) were chosen for subsequent assessments of cytotoxicity mechanisms.

[2] = test system: IL-6 level, PC3 cells; assay: IL-6 level ELISA, PC3; type: cell-based, human; conditions: PC3, 72 h; for IL-6 Concentration: compound at IC50 concentration, ELISA; for reduction of IL-6 level: IC50 concentration, vs control
Protocol: (§5) Because of the low secretion of IL-6 by leukemic cells compared to solid tumors, and in addition to the lack of IL-6 receptors in K-562 cells, studies of the effect of derivatives 1–3, 8, and 9 on the inhibition of IL-6 release were carried out on primary and secondary solid tumor cells (SW480, SW620, and PC3). A remarkable inhibition of the IL-6 level was denoted for both colon cancer cell lines. Compound 2, identified as the strongest inhibitor, reduced the interleukin level by 54% (in SW480 cells) and 63% (SW620 cells). A significant effect was also observed in these cells for its structural isomer 3 (39% and 23% of inhibition, respectively). Additionally, compound 3 considerably affected the IL-6 level produced by PC3 cells, and reduced it by 33%. Similarly, the treatment with derivative 1 was effective for both colon cancer cells. In its presence, IL-6 release decreased by 28–36%, as compared to controls. For monosubstituted derivatives 8 and 9, the observed IL-6-reducing influence was weaker. They both inhibited IL-6 secretion in SW480 and SW620 cell lines by 25–32%. In contrast to compound 9, thiourea 8 additionally diminished the cytokine level in PC3 cells by 26%.
(§6) The IL-6 concentration in all studied cancer cells and normal HaCaT cell lines was measured by an ELISA kit (Diaclon SAS Besancon CEDEX, Besançon, France). […] IL-6 in cell culture supernatant was measured using the enzyme-linked immunosorbent assay in accordance with the manufacturer’s protocol.

[3] = test system: PC3 cells; assay: MTT assay, PC3; type: cell-based; conditions: Homo sapiens, PC-3, 72 h, 50% growth inhibition
Protocol: as §1, §2, §3, §4

[4] = test system: IL-6 level, SW480 cells; assay: IL-6 level ELISA, SW480; type: cell-based, human; conditions: SW480, 72 h; for IL-6 Concentration: compound at IC50 concentration, ELISA; for reduction (inhibition) of IL-6 level: IC50 concentration, vs control
Protocol: as §5, §6

[5] = test system: SW620 cells; assay: Annexin V-FITC/PI flow cytometry, SW620; type: cell-based, human; conditions: SW620, 72 h, IC50 concentration
Protocol: (§7) To estimate the mechanism of anticancer activity of the selected compounds 1–3, 8, and 9, their effect on both early and late apoptosis was evaluated by flow cytometry analysis. […] Additionally, visible late apoptosis-inducing properties in these cell lines were denoted for the compound 9 (47% ± 3.0%), which was twice as strong towards the colon tumor cells mentioned above. The apoptotic properties of analogs 3 and 8 in K-562 cells varied from 30% ± 1.6% to 33% ± 2.3%. […] Whereas the apoptosis-generating influence of derivatives 2 and 3 on normal keratinocytes was higher (29% and 23%), their selectivity measured by MTT methods is favorable. The obtained results are in agreement with the IC50 values assigned to pathological cancer cell lines. The cells were cultured and harvested under the conditions described in Section 3.2.1. […] The effect of these compounds on the process of early and late apoptosis and necrosis was determined as described previously by dual staining with Annexin V:FITC and propidium iodide, according to the manufacturer’s protocol (Becton Dickinson). The cells that were Annexin V:FITC positive and PI negative were identified as early apoptotic, and Annexin V:FITC and PI positive as late apoptotic or necrotic.

[6] = test system: HaCaT cells; assay: Annexin V-FITC/PI flow cytometry, HaCaT; type: cell-based, human; conditions: 72 h, IC50 concentration, Annexin V-FITC/PI
Protocol: as §7

[7] = test system: PC3 cells; assay: Annexin V-FITC/PI flow cytometry, PC3; type: cell-based, human; conditions: PC3, 72 h, IC50 concentration
Protocol: as §7

IC50 ([1]; Homo sapiens, K562, 72 h) | IC50 [3] | melting point | IC50 ([1]; 72 h) | SMILES | IL-6 Concentration [2] | IL-6 Concentration [4] | cells in late apoptosis [5] | cells in late apoptosis [6] | reduction (inhibition) of IL-6 level [4] | reduction of IL-6 level [2] | cells in late apoptosis [7]
54.3 ± 1.86 µM | 13.7 ± 7.04 µM |  |  | FC(F)(F)c1cccc(NC(S)=Nc2ccc(Cl)cc2Cl)c1 [Compound 3, 1-(2,4-dichlorophenyl)-3-[3-(trifluoromethyl)phenyl]thiourea] | 7.3 ± 0.06 pg/mL | 4.8 ± 0.04 pg/mL | ≤ 26% | 23% | 39% | 33% | 
54.8 ± 0.24 µM | 6.9 ± 1.64 µM | 134 to 136 °C |  | FC(F)(F)c1ccc(NC(=S)Nc2cccc(C(F)(F)F)c2)cc1 [Compound 8, 1-[3-(trifluoromethyl)phenyl]-3-[4-(trifluoromethyl)phenyl]thiourea] | 8.1 ± 0.08 pg/mL | 5.3 ± 0.01 pg/mL | ≤ 26% |  |  | 26% | 25% ± 1.5%
10.2 to 12.9 µM | 22.6 ± 1.25 µM |  | 10.2 ± 0.35 µM | FC(F)(F)c1cccc(NC(=S)Nc2ccc(Cl)cc2)c1 [Compound 9, 1-(4-chlorophenyl)-3-[3-(trifluoromethyl)phenyl]thiourea] | 9.9 ± 0.03 pg/mL | 5.5 ± 0.02 pg/mL | ≤ 26% |  |  |  | 

Second part, the molecule before the results:

SMILES | IC50 ([1]; Homo sapiens, K562, 72 h) | IC50 [3] | melting point | IC50 ([1]; 72 h) | IL-6 Concentration [2] | IL-6 Concentration [4] | cells in late apoptosis [5] | cells in late apoptosis [6] | reduction (inhibition) of IL-6 level [4] | reduction of IL-6 level [2] | cells in late apoptosis [7]
Fc1ccc(NC(=S)Nc2cccc(C(F)(F)F)c2)cc1Cl [Compound 1, 1-(3-chloro-4-fluorophenyl)-3-[3-(trifluoromethyl)phenyl]thiourea] | 6.8 ± 1.57 µM | 53.6 ± 2.94 µM |  |  | 9.6 ± 0.02 pg/mL | 5.7 ± 0.01 pg/mL | 57% ± 1.2% |  |  |  | 
FC(F)(F)c1cccc(NC(=S)Nc2ccc(Cl)c(Cl)c2)c1 [Compound 2, 1-(3,4-dichlorophenyl)-3-[3-(trifluoromethyl)phenyl]thiourea] | 6.3 ± 1.28 µM | 31.7 ± 2.07 µM |  |  | 9.1 ± 0.04 pg/mL | 3.6 ± 0.02 pg/mL | 99% ± 0.5% | 29% | 54% |  | 
